Experimental data taken from publication PMC12311110 (Nature Communications, 2025).
Where two headings read alike, the source gives them in different places. Each block holds one compound with its values, some of them ahead of it. No end group written: not given here.

What was measured:
[1] = tested on: HeLa lines expressing the BioID1 chimeric versions; assay: GLUT1 and α5β1-integrin trafficking (lysosomal missorting/colocalization with LAMP1) after biotin incubation; format: cell-based, human; conditions: 24 h incubation with 50 µM biotin; HeLa lines expressing the BioID1 chimeras; confocal imaging
Description: To explore the robustness of the proximity labelling, we performed an initial biased identification of the biotinylated proteins using western analysis of target proteins. Although 12 h incubation with biotin was enough to label some interactors, we chose to perform all experiments using 24 h incubation to maximise the detection of weak and low abundance proximity proteins, and the potential to identify cargo proteins transiting through the sub-domains (Supplementary Fig. 2H). Importantly, we tested whether the actual biotin-labelling process had any detectable effect on Retromer and Retriever-dependent cargo sorting.
HeLa cells were seeded onto 13 mm coverslips. […]
Confocal microscope images were taken on a Leica SP5-II confocal laser scanning microscope attached to a Leica DMI 6000 inverted epifluorescence microscope or a Leica SP8 confocal laser scanning microscope attached to a Leica DM l8 inverted epifluorescence microscope (Leica Microsystems), with a 63x UV oil immersion lens, numerical aperture 1.4 (Leica Microsystems, 506192). […] The system operated in simultaneous twin-cam mode, and the desired fluorescence was selected through the use of either a 525/50 nm or 617/73 nm bandpass filter for the green or red channel, respectively. […]

[2] = target: T1, hRetromer (Homo sapiens, UniProt O75436+Q96QK1+Q9UBQ0); assay: Isothermal titration calorimetry (ITC) of binding to Retromer; conditions: 25 °C; for -TΔS / ΔG / ΔH / Kd: ITC, mean of triplicate titrations
T1 construct: GST (pGEX4T-2, thrombin site plus linker) (N, cleaved yes); made in house; host or cells: E. coli BL21 (DE3)
Description: All the bacteria constructs were expressed in BL21 (DE3) cells using the autoinduction method. In brief, cultures grown in complex medium were incubated at 37 °C for 4 h, followed by overnight growth at 20 °C before harvesting for purification. […] In all cases, the soluble fractions clarified by centrifugation were loaded onto pre-equilibrated glutathione sepharose (GE healthcare) for initial purification. For Retromer, an additional Talon® resin purification step was performed to ensure the correct stoichiometry. GST-tag removal was carried out co-column overnight by adding thrombin for Human Retromer and PreScission protease for TBC1D13. The GST-tag removed fraction was further purified by size-exclusion chromatography (SEC) using a Superdex 200 (16/600) column (GE Healthcare) equilibrated with buffer containing 50 mM Tris-HCl pH 7.5, 200 mM NaCl, 2 mM β-ME.
The effect of cyclic peptide was assessed by pre-mixing 140 µM RT-D1 into 14 µM Retromer before titrating with 1 mM of native DENND4C1189-1206 peptide. For the binding experiment between Retromer and TBC1D13, 530 µM of TBC1D13 was titrated into 14 µM Retromer. The effect of the cyclic peptide was tested using the same concentration of RT-D1 as described above. All ITC experiments consisted of an initial 0.4 μl (not used in data processing), followed by 12 serial injections of 3.22 μl each with 180 sec intervals. The resulting titration data were integrated with the Malvern software package by fitting and normalised data to a single-site binding model. This yielded the thermodynamic parameters for all binding experiments, including the dissociation constant (Kd), enthalpy (∆H), Gibbs free energy (∆G) and -T∆S. The stoichiometry (N) was refined initially, and if the value was close to 1, then it was set to exactly 1.0 for calculation. The data presented are the mean of triplicate titrations for each experiment.

[3] = tested on: colocalization with VPS35 or SNX1 in HeLa cells; assay: Immunofluorescence colocalization analysis (Manders/Pearson coefficients); format: cell-based, human; conditions: mean of the 3 experiment averages (n = 3)
Description: HeLa cells were seeded onto 13 mm coverslips. Cells were fixed in 4% (v/v) paraformaldehyde (PFA) (Pierce, 28906) in PBS for 20 min and permeabilised in 0.1% (v/v) Triton X-100 in PBS (Sigma-Aldrich), or in 0.1% (w/v) saponin (sigma-Aldrich) in PBS when labelling LAMP1 compartments, for 5 min followed by blocking with 2% (w/v) BSA (Sigma, 05482) in PBS for 30 min. Coverslips were stained with primary antibodies for 1 hr followed by secondary antibodies for 30 min, then mounted onto glass microscope slides with Fluoromount-G (Invitrogen, 00-4958-02).
Confocal microscope images were taken on a Leica SP5-II confocal laser scanning microscope attached to a Leica DMI 6000 inverted epifluorescence microscope or a Leica SP8 confocal laser scanning microscope attached to a Leica DM l8 inverted epifluorescence microscope (Leica Microsystems), with a 63x UV oil immersion lens, numerical aperture 1.4 (Leica Microsystems, 506192). For the Leica SP8 microscope, ‘lightning’ adaptive image restoration was used to generate deconvolved representative images. Colocalization analysis was performed using Volocity 6.3 software (PerkinElmer) or JACOP plugin from ImageJ-FIJI software. Spinning disk high-resolution images were acquired on an IXplore SpinSR system (Olympus) consisting of an IX83 microscope frame with a CO2 and temperature chamber (Olympus), SoRa W1 twin cam spinning disk unit (Yokogawa) and two back-thinned Fusion BT sCMOS cameras (Hamamatsu). A 488 nm or 561 nm laser provided excitation for the green and red channels, respectively. The SoRa disk with an additional 3.2x magnification changer was used for imaging with excitation light focused to the sample using a 60x/1.4NA oil immersion lens. The system operated in simultaneous twin-cam mode, and the desired fluorescence was selected through the use of either a 525/50 nm or 617/73 nm bandpass filter for the green or red channel, respectively.

[4] = 1 mM DENND4C1189-1206 peptide (native or L1204A) titrated into 14 µM Retromer
[5] = 140 µM RT-D1 pre-mixed into 14 µM Retromer, then titrated with 1 mM native DENND4C1189-1206 peptide

Compound: O=C(O)CCCC[C@@H]1SC[C@@H]2NC(=O)N[C@@H]21 [biotin]
- Effect of biotin labelling on trafficking of GLUT1 or α5β1-integrin [1]: did not detect significant changes

- -TΔS [2, 4]: No binding detected
- ΔG [2, 4]: No binding detected
- ΔH [2, 4]: No binding detected
- Kd ([2]; Microcal PEAQ-ITC, 1 mM DENND4C1189-1206 peptide (native or L1204A) titrated into 14 µM Retromer, single-site binding model): No binding detected
Compound: AKVVQREDVETGLDPASL [hDENND4C1189-1206 L1204A]

- Kd ([2]; Microcal PEAQ-ITC, 1 mM DENND4C1189-1206 peptide (native or L1204A) titrated into 14 µM Retromer, single-site binding model, read-out: Kd): 15.4 ± 0.85 µM
Compound: AKVVQREDVETGLDPLSL [hDENND4C1189-1206]

- Effect of competing RT-D1 on binding of the DENND4C PL-containing peptide ([2]; ITC competition, 140 µM RT-D1 pre-mixed into 14 µM Retromer, 1 mM DENND4C1189-1206 peptide titrated): blocked
Compound: Ac-yIIDTPLGVFLSSLKRC-NH2 [RT-D1, reference compound]

Compound: GFP-DENND4C L1201A
- GFP-DENND4C dots/section [3]: 11.1
- M1 GFP-DENND4C/VPS35 (Manders coefficient) [3]: 0.06333
- M2 GFP-DENND4C/VPS35 (Manders coefficient) [3]: 0.06433

Compound: GFP-DENND4C WT
- GFP-DENND4C dots/section [3]: 55.5
- M1 GFP-DENND4C/VPS35 (Manders coefficient) [3]: 0.4133
- M2 GFP-DENND4C/VPS35 (Manders coefficient) [3]: 0.28

- -TΔS [2, 5]: No binding detected
- Kd [2, 5]: No binding detected
- ΔG [2, 5]: No binding detected
- ΔH [2, 5]: No binding detected
Compound: hDENND4C1189-1206 + RT-D1: native DENND4C1189-1206 peptide titrated into Retromer pre-mixed with 140 µM RT-D1 (AKVVQREDVETGLDPLSL; premixed with Retromer and RT-D1; UniProt Q5VZ89 1189-1206, looked up, fragment)
